From patent US20230181719A1, “NGR CONJUGATES AND USES THEREOF” (OSPEDALE SAN RAFFAELE S.R.L., priority 2020, published 2023)
Positions of bridges follow the written chain, without caps; N, C: chain ends. Residues, ends and D or L forms follow the SMILES beside them.

Tests used:
[1] = Peptide deamidation stability upon incubation at 37° C., by mass spectrometry; format: physicochemical; details: after 32 h at 37° C. in PBS, pH 7.4
Experimental: FIG. 11. The peptide SCNGRCGVRY (SEQ ID NO: 3) has a lower propensity to deamidate than CNGRCGVRY (SEQ ID NO:4) in a physiological buffer at […], but not in ammonium bicarbonate buffer at pH 8.5. A and B) MS analysis of SCNGRCGVRY (SEQ ID NO: 3) and CNGRCGVRY (SEQ ID NO:4) after incubation at 37° C. for the indicated time in 50 mM sodium phosphate buffer, pH 7.4 (PBS) or 0.1 M ammonium bicarbonate buffer, pH 8.5 (Ambic). The values +0, + 1, -17 reported in the plot correspond to the difference between the observed and the expected molecular mass of peptides expressed in daltons. MS analysis was performed using the LTQ-Orbitrap mass spectrometer (Thermo Scientific).
To assess whether the addition of the serine residue to CNGRCG (SEQ ID NO:1) might affect its deamidation propensity inventors synthetized the SCNGRCGVRY (SEQ ID NO: 3) and CNGRCGVRY (SEQ ID NO:4) peptides and studied their stability upon incubation at 37° C. in PBS, pH 7.4, by mass spectrometry.
A similar experiment was then performed with peptides in 0.1 M ammonium bicarbonate, pH 8.5, a condition known to force Asn deamidation (Curnis et al. 2006). […] Furthermore, the succinimide-derivative of S-NGR-TNF, when formed, is more prone to hydrolysis.

αvβ3 = αvβ3 (Homo sapiens, UniProt P05106+P06756); assay: Competitive binding of acetyl-CisoDGRCG/streptavidin-peroxidase to integrin-coated microtiterplates
From the text: (§1) To assess whether the isoDGR derivative of S-NGR-TNF and NGR-TNF targeting domains can recognize integrins with similar affinities inventors then analysed the binding of SCisoDGRCGVRY (SEQ ID NO: 17), CisoDGRCGVRY and acetyl-CisoDGRCGVRY to αvβ3, αvβ5, αvβ6 αvβ8 and α5β1 integrins using a competitive binding assay previously described (Curnis et al. 2010). […] As expected […] (SEQ ID NO: 3) and […] […] Considering that human NGR-TNF contains acetylated and non-acetylated forms and that both CNGRC (SEQ ID NO:5) and acetyl-CNGRC can undergo deamidation (Curnis et al. 2010), inventors can conclude that the isoDGR derivative of S-NGR-TNF, if formed, behave in a manner similar to those of the isoDGR derivatives of NGR-TNF in terms of integrin recognition.

αvβ5 = αvβ5 (Homo sapiens, UniProt P06756+P18084); assay: as above; details: mean ± SE
From the text: as §1

αvβ8 = αvβ8 (Homo sapiens, UniProt P06756+P26012); assay: as above; details: mean ± SE
From the text: as §1

α5β1 = α5β1 (Homo sapiens, UniProt P05556+P08648); assay: as above; details: mean ± SE
From the text: as §1

αvβ6 = αvβ6 (Homo sapiens, UniProt P06756+P18564); assay: as above; details: mean ± SE
From the text: as §1

CD13 (aminopeptidase N) = biological target: T1, CD13 (aminopeptidase N) (Homo sapiens, UniProt P15144); assay: CD13 enzyme kinetics inhibition assay (L-alanine p-nitroanilide substrate); format: biochemical; details: in different experimental conditions
T1 construct: histidine tag
From the text: FIG. 10. The peptide SCNGRCGVRY (SEQ ID NO: 3) inhibits CD13 enzymatic activity more efficiently than CNGRCGVRY (SEQ ID NO:4) and acetylated-CNGRCGVRY. A) Steady state kinetic analysis of CD13 in the presence of various amounts of L-alanine p-nitroanilide substrate and SCNGRCGVRY (SEQ ID NO: 3), CNGRCGVRY (SEQ ID NO:4), or acetylated-CNGRCGVRY (ac-CNGRCGVRY) (SEQ ID NO:42). A representative plot of 3-4 independent experiments, showing the initial velocity (V0) versus substrate concentration (mean ± SE of four technical replicates), is shown. The assays were performed with recombinant human histidine-tagged CD13 (200-300 ng/ml) in 60 mM potassium phosphate buffer, pH 7.4, at room temperature. The kinetic of p-nitroanilide formation was monitored spectrophotometrically (A405 nm) for 5-10 min. The inhibitory constant (Ki) reported in each plot is the result of the 3-4 independent experiments (mean ± SE). B) Double reciprocal plots of the experiments reported in panel A.
To rule out the possibility that the addition of the serine residue to the N-terminus of NGR-TNF abrogates or reduces its affinity for CD13 inventors performed enzyme kinetics inhibition assays with CD13 (aminopeptidase N) and SCNGRCGVRY (SEQ ID NO: 3), CNGRCGVRY (SEQ ID NO:4) or acetyl-CNGRCGVRY (corresponding to the N-terminal region of human S-NGR-TNF and NGR-TNF).

## CC(C)[C@H](NC(=O)CNC(=O)[C@@H]1CSSC[C@H](NC(=O)[C@@H](N)CO)C(=O)N[C@@H](CC(N)=O)C(=O)NCC(=O)N[C@@H](CCCNC(=N)N)C(=O)N1)C(=O)N[C@@H](CCCNC(=N)N)C(=O)N[C@@H](Cc1ccc(O)cc1)C(=O)O [SCNGRCGVRY, SCNGRCGVRY (SEQ ID NO: 3)] (H-SCNGRCGVRY-OH; disulfide 2-6; N-terminus and C-terminus assumed)
[1]
  +1 Da deamidation product (DGR/isoDGR): observed
  -17 Da form still present: not
αvβ3; mean ± SE
  Ki: > 10 µM
αvβ3; αvβ3, αvβ5, αvβ6, αvβ8 and α5β1 (all integrins)
  affinity for integrins: no or very low affinity
αvβ5
  Ki: > 10 µM
αvβ8
  Ki: > 10 µM
α5β1
  Ki: > 10 µM
αvβ6
  Ki: > 10 µM
CD13 (aminopeptidase N)
  Ki value for CD13 lower than that of CNGRCGVRY: 3-5 fold
